What was measured:
Type in all cases: physicochemical
Solubility in ethanol = experiment: Solubility in ethanol
[1] = Particle size of creatine adhered on PVP nano fiber, by scanning electron microscope; details: SEM, FIG. 1
From the text: A commercially available electrospinning apparatus (HSP-30K-2 manufactured by Nippon Stabilizer Industry Co., Ltd.) was used, voltage (direct current of 15 kV) was applied between (the distance being 20 cm) a nozzle and an aluminum foil (manufactured by Mitsubishi Aluminum Company, Ltd.) on which a cotton mat (manufactured by Asahi Kasei Corporation) is placed attached to a collector of the apparatus and a 10 wt % ethanolic solution of polyvinylpyrrolidone (PVP) was sprayed at ambient temperature from the nozzle onto the cotton mat to form a matrix comprising a nano fiber of PVP on the surface of the cotton mat. A fiber diameter of the nano fiber of PVP constituting the matrix was measured by using a scanning electron microscope (SEM JSM-5400 manufactured by JOEL Ltd.) and found to be from 300 to 700 nm. The cotton mat where a matrix comprising a nano fiber of PVP was formed on the surface was attached onto a filter of a commercially available spray-drying apparatus (Buchi Mini Spray Drier B-290 manufactured by Nihon BUCHI K.K.) and a 1 wt % aqueous solution of creatine was spray-dried onto the matrix (outlet temperature of the nozzle: 180° C.; aspirator speed: 35%; pump speed: 5%) to give a cotton mat where a matrix comprising a nano fiber of PVP in which creatine particles were adhered on the surface was formed on the surface. As will be apparent from FIG. 1, the particle size of creatine adhered on the surface of the nano fiber of PVP was about 2 μm at the largest and many of the particles were in a size of from 100 nm to smaller than 1 μm.

[2] = Exposure of the cotton mat to air stream similar to human inspiration, SEM picture after exposure
Procedure: The cotton mat where the matrix comprising the nano fiber of PVP in which creatine particles were adhered on the surface was formed on the surface was exposed for 1 minute in air stream having the similar degree as human inspiration (velocity is 5 L/minute). A picture of the cotton mat after exposure taken under a scanning electron microscope (the same one as mentioned already) is shown in FIG. 2.

[3] = spray-dried onto PVP nano fiber matrix on cotton mat

Row | solubility in ethanol (Solubility in ethanol) | particle size of creatine adhered on the surface of the nano fiber of PVP, at the largest ([1]; spray-dried from 1 wt % aqueous solution onto PVP nano fiber matrix on cotton mat) | particle size, many of the particles, lower limit [1, 3] [nm] | particle size, many of the particles, upper limit [1, 3] | stability of nano- to micron-size particles in air ([2]; adhered on PVP nano fiber matrix, no dispersing solvent) | detachment of particles adhered on the nano fiber of PVP ([2]; air stream 5 L/minute, 1 minute, SEM, FIG. 2) | Compound
1 | hardly soluble |  |  |  |  |  | O=c1c2ccccc2[se]n1-c1ccccc1 [Ebselen, 2-phenyl-1,2-benzoisoselenazol-3-(2H)-one]
2 |  | about 2 μm | ≥ 100 | smaller than 1 μm | stably retained even in air | detached by air stream | CN(CC(=O)O)C(=N)N [creatine]
